This is an account of results in patent US20260226073A1 (AURIGENE ONCOLOGY LIMITED, priority 2023, published 2026).

Experiment [1] concerns the target T1, human recombinant CBL-b (human Biotin CBL-b recombinant protein a.a. 39-426) (Homo sapiens, UniProt Q13191).
T1 construct: human Biotin CBL-b recombinant protein a.a; 39-426; Biotin (biotinylated); made in house
In words: Biochemical assay for CBL-b inhibition (ligand displacement TR-FRET). It counts as binding. The conditions noted are these: 50 nM CBL-b, 0.3 μM Bodipy FL-Probe, read-out: IC50 (CBL-b inhibition, group). The method, boiled down: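 Biotinylated CBL-b (a.a. 39-426, 50 nM final) pre-incubated with compound 60 min at RT in HEPES/NaCl/Triton/BSA/TCEP buffer, then Bodipy FL probe (0.3 μM final) 60 min, then terbium-streptavidin 60 min. TR-FRET read at 665/615 nm; IC50 and % max inhibition from sigmoidal fits.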
For orientation: In TR-FRET formats the signal depends on donor and acceptor labels being close together.

Experiment [2] has as its system NFAT signaling pathway in Jurkat NFAT reporter cells. In words: Jurkat NFAT reporter assay. It is filed as cell-based. The conditions noted are these: Homo sapiens, 30 min with compound, then soluble anti-human CD3/CD28 antibody for 6 hours, luciferase readout, read-out: EC50 (Group). As for the experimental part: A human T lymphocyte Jurkat reporter cell line was further used to assess activation of the nuclear factor of activated T-cells (NFAT) signaling pathway by Cbl-b inhibitors. The reporter cell line is a genetically engineered Jurkat T cell line that expresses a luciferase reporter driven by an NFAT-response element (NFAT-RE). The Cbl-b inhibitor was incubated with 1×10^5 Jurkat NFAT reporter cells per well for 30 minutes. Subsequently, cells were stimulated with soluble anti-human CD3/CD28 antibody for 6 hours resulting in NFAT-RE-mediated luminescence. The bioluminescent signal is detected and quantified using Bio-Glo™ Luciferase Assay System. Readouts were reported as fold change over baseline. Here, baseline was the measurement obtained from Jurkat NFAT reporter cells stimulated with anti-CD3 antibody and anti-CD28 antibody, where the cells were not incubated with a Cbl-b inhibitor.
A general note: Reporter assays use an easily measured gene product as a stand-in for the process of interest.

Structures are written as SMILES. Some results are limits rather than exact numbers.

T1 sequence (Q13191 39-426): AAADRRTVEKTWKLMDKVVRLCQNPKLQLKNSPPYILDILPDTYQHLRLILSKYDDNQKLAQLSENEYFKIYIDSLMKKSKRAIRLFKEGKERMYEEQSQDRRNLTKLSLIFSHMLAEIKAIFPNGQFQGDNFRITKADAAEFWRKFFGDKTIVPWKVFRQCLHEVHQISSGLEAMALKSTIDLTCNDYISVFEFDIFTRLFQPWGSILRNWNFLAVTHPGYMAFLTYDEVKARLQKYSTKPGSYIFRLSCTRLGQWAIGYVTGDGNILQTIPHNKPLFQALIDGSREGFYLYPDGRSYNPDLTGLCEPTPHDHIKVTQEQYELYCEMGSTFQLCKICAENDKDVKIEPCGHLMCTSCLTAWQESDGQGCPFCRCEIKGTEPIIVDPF

What is called IC50 is the concentration that inhibits the measured activity by half. For orientation: EC50 means the midpoint of the concentration-response curve. `Cc1cc(CN[C@@H]2CCC[C@H]2O)cc(N2Cc3ccc(-c4ccc(F)cc4-c4nncn4C)cc3C2=O)n1` [Compound 314, 6-(4-Fluoro-2-(4-methyl-4H-1,2,4-triazol-3-yl)phenyl)-2-(4-((((1R,2R)-2-hydroxycyclopentyl)amino)methyl)-6-methylpyridin-2-yl)isoindolin-1-one]: the IC50 in experiment [1] was under 80 nM. For the same molecule, the EC50 in experiment [2] was in the range of 300 to 1000 nM.
In the case of `CC(NCc1cscn1)c1cc(Cl)nc(N2Cc3ccc(C4(Cc5nncn5C)COC4)cc3C2=O)c1` (centres unmarked) [Compound 205], in experiment [1], the IC50 is under 80 nM. The EC50 in experiment [2] is under 300 nM.
As to `C[C@@H](Cc1nncn1C)c1ccc2c(c1)C(=O)N(c1cc(CNCC3CC3)cc(Cl)n1)C2` (single isomer, unassigned) [Compound 160], the IC50 in experiment [1] was under 80 nM. Besides, the EC50 in experiment [2] lay in the range of 300 to 1000 nM.
Turning to `Cn1cnnc1CC1(c2ccc3c(c2)C(=O)N(c2cc(CNCC4CC(F)(F)C4)cc(Cl)n2)C3)COC1` [Compound 169, 2-(6-Chloro-4-((((3,3-difluorocyclobutyl)methyl)amino)methyl)pyridin-2-yl)-6-(3-((4-methyl-4H-1,2,4-triazol-3-yl)methyl)oxetan-3-yl)isoindolin-1-one], the IC50 in experiment [1] is under 80 nM. The EC50 in experiment [2] is under 300 nM.
As for `Cc1cc([C@H](C)NC2CCCC2)cc(N2Cc3ccc(-c4ccc(Cl)cc4-c4nncn4C)cc3C2=O)n1` (single isomer, unassigned) [Compound 125, 6-(4-Chloro-2-(4-methyl-4H-1,2,4-triazol-3-yl)phenyl)-2-(4-(1-(cyclopentyl-amino)ethyl)-6-methylpyridin-2-yl)isoindolin-1-one], the IC50 in experiment [1] is under 80 nM. Besides, the half-maximal effective concentration (EC50) in experiment [2] was under 300 nM.
As for `Cn1cnnc1CC1(c2ccc3c(c2)C(=O)N(c2cc(CNCc4cscn4)cc(Cl)n2)C3)COC1` [Compound 189], the IC50 in experiment [1] was under 80 nM. Also, in experiment [2], the EC50 was 1000 to 10000 nM.
Regarding `Cc1cc(CNCC2CCO2)cc(N2Cc3ccc(-c4ccc(F)cc4-c4nncn4C)cc3C2=O)n1` (centres unmarked) [Compound 325, 6-(4-Fluoro-2-(4-methyl-4H-1,2,4-triazol-3-yl)phenyl)-2-(6-methyl-4-(((oxetan-2-ylmethyl)amino)methyl)pyridin-2-yl)isoindolin-1-one], the IC50 in experiment [1] was under 80 nM. Besides, in experiment [2], the EC50 lay in the range of 1000 to 10000 nM.
The like results for `Cc1cc(CNCC2CC2)cc(N2Cc3ccc(C4(Cc5nncn5C)COC4)cc3C2=O)n1` [Compound 147, 2-(4-(((Cyclopropylmethyl)amino)methyl)-6-methylpyridin-2-yl)-6-(3-((4-methyl-4H-1,2,4-triazol-3-yl)methyl)oxetan-3-yl)isoindolin-1-one] were, in that order, under 80 nM and 300 to 1000 nM.
On to `Cn1cnnc1CC1(c2ccc3c(c2)C(=O)N(c2cc(CNCCC(F)(F)F)cc(Cl)n2)C3)COC1` [Compound 66, 2-(6-Chloro-4-(((3,3,3-trifluoropropyl)amino)methyl)pyridin-2-yl)-6-(3-((4-methyl-4H-1,2,4-triazol-3-yl)methyl)oxetan-3-yl)isoindolin-1-one], for which, in experiment [1], the IC50 was under 80 nM. In experiment [2], the EC50 was under 300 nM.
Take `Cn1cnnc1C[C@]1(c2ccc3c(c2)C(=O)N(c2cc(CNCC4CC4)cc(Cl)n2)C3)C[C@@H](C#N)C1` (single isomer, unassigned) [Compound 234, (1s,3s)-3-(2-(6-Chloro-4-(((cyclopropylmethyl)amino)methyl)pyridin-2-yl)-3-oxoisoindolin-5-yl)-3-((4-methyl-4H-1,2,4-triazol-3-yl)methyl)cyclobutane-1-carbonitrile]: the IC50 in experiment [1] is under 80 nM. Moreover, the EC50 in experiment [2] was in the range of 1000 to 10000 nM.
In the case of `Cn1cnnc1CC1(c2ccc3c(c2)C(=O)N(c2cc(CN4CCCC(CO)C4)cc(C(F)(F)F)n2)C3)COC1` (centres unmarked) [Compound 37, 2-(4-((3-(Hydroxymethyl)piperidin-1-yl)methyl)-6-(trifluoromethyl)pyridin-2-yl)-6-(3-((4-methyl-4H-1,2,4-triazol-3-yl)methyl)oxetan-3-yl)isoindolin-1-one], the IC50 in experiment [1] lay in the range of 80 to 300 nM. Besides, the EC50 in experiment [2] lay within 1000 to 10000 nM.
On to `C[C@H](N[C@H](C)C1CC1)c1cc(Cl)nc(N2Cc3ccc(C4(Cc5nncn5C)COC4)cc3C2=O)c1` (single isomer, unassigned) [Compound 240], for which the IC50 in experiment [1] was under 80 nM. In addition, the EC50 in experiment [2] was under 300 nM.
As to `C[C@H]1CCN(Cc2cc(N3Cc4ccc(C5(Cc6nncn6C)COC5)cc4C3=O)nc(C(F)(F)F)c2)C1` [Compound 34, (S)-6-(3-((4-Methyl-4H-1,2,4-triazol-3-yl)methyl)oxetan-3-yl)-2-(4-((3-methyl-pyrrolidin-1-yl)methyl)-6-(trifluoromethyl)pyridin-2-yl)isoindolin-1-one], the IC50 in experiment [1] lay within 80 to 300 nM. The EC50 in experiment [2] was in the range of 300 to 1000 nM.
Regarding `CCn1cnnc1-c1cc(F)ccc1-c1ccc2c(c1)C(=O)N(c1cc(CNCC3CC3)cc(C)n1)C2` [Compound 294, 2-(4-(((Cyclopropylmethyl)amino)methyl)-6-methylpyridin-2-yl)-6-(2-(4-ethyl-4H-1,2,4-triazol-3-yl)-4-fluorophenyl)isoindolin-1-one], the IC50 in experiment [1] was under 80 nM. Further, the EC50 in experiment [2] fell in the range of 1000 to 10000 nM.
In the case of `Cc1cc(CNC(C)C2CC2)cc(N2Cc3ccc(-c4ccc(Cl)cc4-c4nncn4C)cc3C2=O)n1` (centres unmarked) [Compound 122, 6-(4-Chloro-2-(4-methyl-4H-1,2,4-triazol-3-yl)phenyl)-2-(4-(((1-cyclopropyl-ethyl)amino)methyl)-6-methylpyridin-2-yl)isoindolin-1-one], the IC50 in experiment [1] is under 80 nM. The concentration giving a half-maximal response (EC50) in experiment [2] is under 300 nM.
Turning to `Cn1cnnc1CC1(c2ccc3c(c2)C(=O)N(c2cc(CN4CCCC(C#N)C4)cc(C(F)(F)F)n2)C3)COC1` (centres unmarked) [Compound 29, 1-((2-(6-(3-((4-Methyl-4H-1,2,4-triazol-3-yl)methyl)oxetan-3-yl)-1-oxoisoindo-lin-2-yl)-6-(trifluoromethyl)pyridin-4-yl)methyl)piperidine-3-carbonitrile], in experiment [1], the IC50 was 80 to 300 nM. Also, the EC50 in experiment [2] was 1000 to 10000 nM.
Turning to `Cn1cnnc1CC1(c2ccc3c(c2)C(=O)N(c2cc(CN4CCC[C@H](O)C4)cc(C(F)(F)F)n2)C3)COC1` [Compound 30, (S)-2-(4-((3-Hydroxypiperidin-1-yl)methyl)-6-(trifluoromethyl)pyridin-2-yl)-6-(3-((4-methyl-4H-1,2,4-triazol-3-yl)methyl)oxetan-3-yl)isoindolin-1-one], in experiment [1], the IC50 lay within 300 to 5000 nM. Also, in experiment [2], the EC50 lay within 1000 to 10000 nM.
With `CC1CCC(C)N(Cc2cc(N3Cc4ccc(C5(Cc6nncn6C)COC5)cc4C3=O)nc(C(F)(F)F)c2)C1` (centres unmarked) [Compound 93, 2-(4-((2,5-Dimethylpiperidin-1-yl)methyl)-6-(trifluoromethyl)pyridin-2-yl)-6-(3-((4-methyl-4H-1,2,4-triazol-3-yl)methyl)oxetan-3-yl)isoindolin-1-one], the EC50 in experiment [2] was 300 to 1000 nM.
`C[C@H]1CCCN(Cc2cc(N3CCCC3)cc(N3Cc4ccc(C5(Cc6nncn6C)COC5)cc4C3=O)c2)C1` [Compound 21, (S)-6-(3-((4-Methyl-4H-1,2,4-triazol-3-yl)methyl)oxetan-3-yl)-2-(3-((3-methyl-piperidin-1-yl)methyl)-5-(pyrrolidin-1-yl)phenyl)isoindolin-1-one]: in experiment [1], the IC50 fell in the range of 300 to 5000 nM.
On to `Cn1cnnc1CC1(c2ccc3c(c2)C(=O)N(c2cc(CNc4ccccn4)cc(Cl)n2)C3)COC1` [Compound 238], for which the IC50 in experiment [1] was 80 to 300 nM.
On the same count and under the same terms, the value for `Cc1cc(CNC(C)(C)C)cc(N2Cc3ccc(-c4ccc(F)cc4-c4nncn4C)cc3C2=O)n1` [Compound 299] was 300 to 5000 nM.
